In this assay the target is HCMV polymerase (UL54) (Human cytomegalovirus (strain AD169) (HHV-5) (Human herpesvirus 5), UniProt P08546). In words: biochemical. Particulars: LANCE TR-FRET, purified recombinant GST-UL54; read-out: Example C (IC50 nM). As for the experimental part: HCMV Polymerase LANCE TR-FRET Assay
This non-radiometric assay determines the enzymatic activity of purified recombinant HCMV polymerase (UL54) using a Digoxigenin-labeled oligonucleotide priming a heteropolymeric template. The enzymatic activity is determined by incorporating Biotin-dUTP in the nascent complementary strand. The signal is generated by Fluorescence Resonance Energy Transfer from the donor (Anti-Digoxigenin-Europium Chelate binding with the primer) to the acceptor Streptavidin-AlloPhycoCyanin (SA-APC) binding to the biotin of the labeled nucleotides incorporated in proximity.
Serial dilutions of the DMSO stock compound solution are performed using DMSO in columns 2-11 and 14-23. DMSO alone is present in columns 1, 12, 13 and 24. Three μL of the DMSO serial dilutions is transferred and diluted using 21 μL of compound dilution buffer (10 mM Hepes pH 7.5, 25 mM KCl, 5 mM MgCl2, 1 mM TCEP) to obtain 12.5% DMSO. 4 μL per well of the 12.5% DMSO serial dilution compound solution is added to the assay plate. The plate is centrifuged at 200×g for 30 sec. […]
To perform the assay, 3 μL of the enzyme solution is added to columns 2-12 and 14-24. […] The signal is read on the Envision plate reader (Perkin-Elmer) or equivalent.
For orientation: TR-FRET usually uses a lanthanide donor and a delayed reading to cut background.

`O=C(NCc1ccc(Cl)cc1)c1cc2cccnc2n(CC(=O)N2CCC(C(=O)O)C2)c1=O` (centres unmarked) [Compound 1029]: the IC50 is 6200 nM.

As for `Nc1c(Br)cnc2c1cc(C(=O)NCc1ccc(Cl)cc1)c(=O)n2CC(=O)N1CCC(CO)C1` (centres unmarked) [Compound 6022], the IC50 was 83 nM.

The term IC50 denotes the concentration that inhibits the measured activity by half.

The values above are taken from patent US9315499B2, “Cytomegalovirus inhibitor compounds” (Boehringer Ingelheim International GmbH, priority 2012, dated 2016).
